Read-outs that look alike come from different tables or passages of the source.
Tests used:
Format in all cases: in vivo, human
[1] = system: patients with chronic schizophrenia; assay: PANSS total score, Clinical Study Four; settings: FAS; for Adjusted Mean Change from Baseline in PANSS Total Score, Least Squares Estimates Mean / Change from Baseline in PANSS Total Score, Difference to PBO Mean / PANSS total, Adjusted Mean Change from Baseline (LS mean): ANCOVA; for PANSS total, Adjusted Mean Change from Baseline (LS mean): BX20 = 20 mg, BX30 = 30 mg
Experimental: (§1) METHODOLOGY: This study was a multinational, multicenter, randomized, double-blind, parallel-group, placebo-controlled, fixed-dose study. The study consisted of a 3- to 6-day antipsychotic-free run-in period, after which patients were randomised to 6 months of double-blind treatment with fixed doses of bifeprunox (20 mg/day (BX20) or 30 mg/day (BX30)) or placebo (PBO). Patients allocated to the BX groups were up-titrated from 0.25 mg/day over 7 days (BX20) or 8 days (BX30), and then continued on these doses for the remainder of the study. […] At predetermined time points, blood samples were obtained for drug concentration analysis of BX and its major metabolites (3′- and 4′-sulfate conjugates of BX), and pharmaco-economic assessments were performed.

[2] = system: patients with chronic schizophrenia; assay: BPRS total and psychosis cluster scores, Clinical Study Four; settings: FAS, LOCF, ANCOVA
Experimental: as §1

[3] = Pharmacokinetics of bifeprunox, pooled analysis and population PK; settings: for half-life: read-out: mean plasma steady-state (elimination) half-life (converted)
Text: The objective of this study is to assess the pharmacokinetics (PK) of bifeprunox. The PK of bifeprunox in healthy subjects were investigated based on a pooled analysis of PK parameters from 21 clinical pharmacology studies. The pooled analysis included PK profiles after single and multiple doses to 132 and 399 subjects, respectively, and explored the potential effects of age, gender, body weight, and race. In addition, PK in patients with schizophrenia were investigated using a population PK approach based on samples from 376 patients in phase II studies and 434 patients in phase III studies.

O=c1[nH]c2cccc(N3CCN(Cc4cccc(-c5ccccc5)c4)CC3)c2o1 [Bifeprunox, 7-[4-([1,1′-biphenyl]-3-ylmethyl)-1-piperazinyl]-2(3H)-benzoxazolone]
Adjusted Mean Change from Baseline in PANSS Total Score, Least Squares Estimates Mean ([1]; Day 90, LOCF, listed as BX30): −1.47 | Change from Baseline in PANSS Total Score, Difference to PBO Mean ([1]; Day 90, LOCF, listed as BX30): −5.14 | Adjusted Mean Change from Baseline in PANSS Total Score, Least Squares Estimates Mean ([1]; Day 90, OC, listed as BX20): −14.17 | Change from Baseline in PANSS Total Score, Difference to PBO Mean ([1]; Day 90, OC, listed as BX20): −4.92 | Adjusted Mean Change from Baseline in PANSS Total Score, Least Squares Estimates Mean ([1]; Day 90, OC, listed as BX30): −12.71 | Change from Baseline in PANSS Total Score, Difference to PBO Mean ([1]; Day 90, OC, listed as BX30): −3.46 | Adjusted Mean Change from Baseline in PANSS Total Score, Least Squares Estimates Mean ([1]; Day 90, POCF, listed as BX20): −10.43 | Change from Baseline in PANSS Total Score, Difference to PBO Mean ([1]; Day 90, POCF, listed as BX20): −5.19 | Adjusted Mean Change from Baseline in PANSS Total Score, Least Squares Estimates Mean ([1]; Day 90, POCF, listed as BX30): −9.25 | Change from Baseline in PANSS Total Score, Difference to PBO Mean ([1]; Day 90, POCF, listed as BX30): −4.00 | Adjusted Mean Change from Baseline in PANSS Total Score, Least Squares Estimates Mean ([1]; Day 120, LOCF, listed as BX20): −1.20 | Change from Baseline in PANSS Total Score, Difference to PBO Mean ([1]; Day 120, LOCF, listed as BX20): −6.50 | Adjusted Mean Change from Baseline in PANSS Total Score, Least Squares Estimates Mean ([1]; Day 120, LOCF, listed as BX30): −0.84 | Change from Baseline in PANSS Total Score, Difference to PBO Mean ([1]; Day 120, LOCF, listed as BX30): −6.14 | Adjusted Mean Change from Baseline in PANSS Total Score, Least Squares Estimates Mean ([1]; Day 120, OC, listed as BX20): −15.81 | Change from Baseline in PANSS Total Score, Difference to PBO Mean ([1]; Day 120, OC, listed as BX20): −5.45 | Adjusted Mean Change from Baseline in PANSS Total Score, Least Squares Estimates Mean ([1]; Day 120, OC, listed as BX30): −14.56 | Change from Baseline in PANSS Total Score, Difference to PBO Mean ([1]; Day 120, OC, listed as BX30): −4.19 | Adjusted Mean Change from Baseline in PANSS Total Score, Least Squares Estimates Mean ([1]; Day 120, POCF, listed as BX20): −10.30 | Change from Baseline in PANSS Total Score, Difference to PBO Mean ([1]; Day 120, POCF, listed as BX20): −5.21 | Adjusted Mean Change from Baseline in PANSS Total Score, Least Squares Estimates Mean ([1]; Day 120, POCF, listed as BX30): −9.68 | Change from Baseline in PANSS Total Score, Difference to PBO Mean ([1]; Day 120, POCF, listed as BX30): −4.59 | Adjusted Mean Change from Baseline in PANSS Total Score, Least Squares Estimates Mean ([1]; Day 150, LOCF, listed as BX20): −0.56 | Change from Baseline in PANSS Total Score, Difference to PBO Mean ([1]; Day 150, LOCF, listed as BX20): −7.04 | Adjusted Mean Change from Baseline in PANSS Total Score, Least Squares Estimates Mean ([1]; Day 150, LOCF, listed as BX30): −0.31 | Change from Baseline in PANSS Total Score, Difference to PBO Mean ([1]; Day 150, LOCF, listed as BX30): −6.80 | Adjusted Mean Change from Baseline in PANSS Total Score, Least Squares Estimates Mean ([1]; Day 150, OC, listed as BX20): −16.36 | Change from Baseline in PANSS Total Score, Difference to PBO Mean ([1]; Day 150, OC, listed as BX20): −1.97 | Adjusted Mean Change from Baseline in PANSS Total Score, Least Squares Estimates Mean ([1]; Day 150, OC, listed as BX30): −15.93 | Change from Baseline in PANSS Total Score, Difference to PBO Mean ([1]; Day 150, OC, listed as BX30): −1.54 | Adjusted Mean Change from Baseline in PANSS Total Score, Least Squares Estimates Mean ([1]; Day 150, POCF, listed as BX20): −10.40 | Change from Baseline in PANSS Total Score, Difference to PBO Mean ([1]; Day 150, POCF, listed as BX20): −5.20 | Adjusted Mean Change from Baseline in PANSS Total Score, Least Squares Estimates Mean ([1]; Day 150, POCF, listed as BX30): −9.55 | Change from Baseline in PANSS Total Score, Difference to PBO Mean ([1]; Day 150, POCF, listed as BX30): −4.35 | Adjusted Mean Change from Baseline in PANSS Total Score, Least Squares Estimates Mean ([1]; Day 180, LOCF, listed as BX20): −0.81 | Change from Baseline in PANSS Total Score, Difference to PBO Mean ([1]; Day 180, LOCF, listed as BX20): −7.91 | Adjusted Mean Change from Baseline in PANSS Total Score, Least Squares Estimates Mean ([1]; Day 180, LOCF, listed as BX30): −0.44 | Change from Baseline in PANSS Total Score, Difference to PBO Mean ([1]; Day 180, LOCF, listed as BX30): −7.54 | Adjusted Mean Change from Baseline in PANSS Total Score, Least Squares Estimates Mean ([1]; Day 180, OC, listed as BX20): −18.09 | Change from Baseline in PANSS Total Score, Difference to PBO Mean ([1]; Day 180, OC, listed as BX20): −3.60 | Adjusted Mean Change from Baseline in PANSS Total Score, Least Squares Estimates Mean ([1]; Day 180, OC, listed as BX30): −18.58 | Change from Baseline in PANSS Total Score, Difference to PBO Mean ([1]; Day 180, OC, listed as BX30): −4.09 | Adjusted Mean Change from Baseline in PANSS Total Score, Least Squares Estimates Mean ([1]; Day 180, POCF, listed as BX20): −10.84 | Change from Baseline in PANSS Total Score, Difference to PBO Mean ([1]; Day 180, POCF, listed as BX20): −5.43 | Adjusted Mean Change from Baseline in PANSS Total Score, Least Squares Estimates Mean ([1]; Day 180, POCF, listed as BX30): −9.92 | Change from Baseline in PANSS Total Score, Difference to PBO Mean ([1]; Day 180, POCF, listed as BX30): −4.52 | PANSS total, Adjusted Mean Change from Baseline (LS mean) ([1]; Month 6, LOCF, listed as BX20): −4.0 | PANSS total, Adjusted Mean Change from Baseline (LS mean) ([1]; Month 6, LOCF, listed as BX30): −0.4 | PANSS total, Adjusted Mean Change from Baseline (LS mean) ([1]; Week 6, LOCF, listed as BX20): −4.0 | PANSS total, Adjusted Mean Change from Baseline (LS mean) ([1]; Week 6, LOCF, listed as BX30): −2.6 | PANSS total scores versus PBO, LOCF analysis ([1]; both BX groups): statistically significantly superior to that in the PBO group from Week 6 onwards | BPRS psychosis cluster, Adjusted Mean Change from Baseline (LS mean) ([2]; Month 6, listed as BX20): −0.1 | BPRS total, Adjusted Mean Change from Baseline (LS mean) ([2]; Month 6, listed as BX20): −0.1 | BPRS psychosis cluster, Adjusted Mean Change from Baseline (LS mean) ([2]; Month 6, listed as BX30): −0.2 | BPRS total, Adjusted Mean Change from Baseline (LS mean) ([2]; Month 6, listed as BX30): 0.5 | BPRS psychosis cluster, Adjusted Mean Change from Baseline (LS mean) ([2]; Week 6, listed as BX20): −0.8 | BPRS total, Adjusted Mean Change from Baseline (LS mean) ([2]; Week 6, listed as BX20): −2.1 | BPRS psychosis cluster, Adjusted Mean Change from Baseline (LS mean) ([2]; Week 6, listed as BX30): −0.7 | BPRS total, Adjusted Mean Change from Baseline (LS mean) ([2]; Week 6, listed as BX30): −1.3 | half-life ([3]; human, in vivo, po): 14.4 h | Tmax ([3]; human, in vivo, oral administration, all dose levels): 1.5 to 2 h | half-life ([3]; human, in vivo, oral): ~14 h | dose proportionality of multiple-dose PK [3]: dose-proportional in the 20-40 mg/day range | dose proportionality of multiple-dose PK ([3]; listed as bifeprunox): dose-proportional in the 2040 mg range | age-, gender-, body weight- or race-related effects on PK ([3]; pooled analysis): No clinically significant age-, gender-, body weight- or race-related effects | mean apparent clearance ([3]; steady-state, oral): 62.2 L/h | mean apparent volume of distribution ([3]; steady-state, oral): 1300 L

Reference: US20090068290A1, “BIFEPRUNOX DOSES FOR TREATING SCHIZOPHRENIA” (priority 2006, published 2009)
